Patent publication US20250011288A1 (BRISTOL-MYERS SQUIBB COMPANY, priority 2021, published 2025)

What follows are molecules tested against T1, human RXFP1 (Homo sapiens, UniProt Q9HBX9) (assay: human RXFP1 (hRXFP1) HEK293 cAMP assay (HTRF)). Conditions: HEK293 cells stably expressing human RXFP1, 30 min at room temperature.
T1 construct: expressed in transfected cells
T1 sequence (Q9HBX9 1-757): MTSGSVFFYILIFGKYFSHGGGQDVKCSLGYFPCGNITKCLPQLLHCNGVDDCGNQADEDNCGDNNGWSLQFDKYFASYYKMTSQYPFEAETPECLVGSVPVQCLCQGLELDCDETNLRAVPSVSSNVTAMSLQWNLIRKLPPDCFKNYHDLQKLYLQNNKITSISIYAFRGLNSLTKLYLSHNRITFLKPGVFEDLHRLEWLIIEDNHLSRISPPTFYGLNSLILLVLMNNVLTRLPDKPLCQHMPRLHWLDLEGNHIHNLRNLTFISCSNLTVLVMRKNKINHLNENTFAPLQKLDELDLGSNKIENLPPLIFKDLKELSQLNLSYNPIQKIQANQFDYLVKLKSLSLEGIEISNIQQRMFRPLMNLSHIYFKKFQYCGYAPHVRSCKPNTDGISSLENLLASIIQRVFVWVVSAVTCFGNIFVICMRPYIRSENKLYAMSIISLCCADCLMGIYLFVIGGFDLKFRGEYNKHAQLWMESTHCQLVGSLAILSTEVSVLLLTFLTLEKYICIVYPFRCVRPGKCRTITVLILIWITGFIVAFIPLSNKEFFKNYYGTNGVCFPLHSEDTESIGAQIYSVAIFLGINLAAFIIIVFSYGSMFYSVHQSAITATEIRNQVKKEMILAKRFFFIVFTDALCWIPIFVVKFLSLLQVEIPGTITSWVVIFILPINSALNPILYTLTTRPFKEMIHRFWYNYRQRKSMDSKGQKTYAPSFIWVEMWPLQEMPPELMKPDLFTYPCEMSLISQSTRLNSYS
Assay type: cell-based
Description: RXFP1 Cyclic Adenosine Monophosphate (cAMP) Assays. […] Cells were dissociated and suspended in assay buffer. The assay buffer was HBSS buffer (with calcium and magnesium) containing 20 mM HEPES, 0.05% BSA, and 0.5 mM IBMX. Cells (3000 cells per well, except 1500 cell per well for HEK293 cells stably expressing human RXFP1) were added to 384-well Proxiplates (Perkin-Elmer). Cells were immediately treated with test compounds in DMSO (2% final) at final concentrations in the range of 0.010 nM to 50 µM. Cells were incubated for 30 min at room temperature. The level of intracellular cAMP was determined using the HTRF HiRange cAMP assay reagent kit (Cisbio) according to manufacturer's instructions. Solutions of cryptate conjugated anti-cAMP and d2 fluorophore-labelled cAMP were made in a supplied lysis buffer separately. Upon completion of the reaction, the cells were lysed with equal volume of the d2-cAMP solution and anti-cAMP solution. […] The potency and activity of a compound to […] cAMP production was then determined by fitting to a 4-parametric logistic equation from a plot of cAMP level versus compound concentrations.

Row | SMILES | EC50
1 | COc1ncc(C2=NOC3COCC23)cc1C(=O)N[C@H]1[C@@H](C(=O)Nc2ccc(F)c(C(F)(F)F)c2)[C@H]2CC[C@@H]1/C2=C\C1CC1 (single isomer, unassigned) [Example 60] | 0.21 µM
2 | COc1ncc(C2=NOC3COCC23)cc1C(=O)N[C@H]1[C@@H](C(=O)Nc2ccc(F)c(C(F)(F)F)c2)[C@H]2CC[C@@H]1/C2=C\C1CC1 (single isomer, unassigned) [Example 61] | 0.0037 µM
3 | O=C(N[C@@H]1C2CCC(/C2=C/C2CC2)[C@@H]1C(=O)Nc1ccc(F)c(C(F)(F)F)c1)c1cncc(C2=NOC3COCC23)c1 (single isomer, unassigned) [Example 62] | 2.4 µM
4 | O=C(N[C@@H]1C2CCC(/C2=C/C2CC2)[C@@H]1C(=O)Nc1ccc(F)c(C(F)(F)F)c1)c1cncc(C2=NOC3COCC23)c1 (single isomer, unassigned) [Example 63] | 0.12 µM
5 | COc1ncc(C2=NOC3CC(C(N)=O)CC23)cc1C(=O)N[C@H]1[C@@H](C(=O)Nc2ccc(F)c(C(F)(F)F)c2)[C@H]2CC[C@@H]1/C2=C\C1CC1 (single isomer, unassigned) [Example 65] | 0.021 µM
6 | COc1ncc(C2=NOC3CC(CO)CC23)cc1C(=O)N[C@@H]1C2CCC(/C2=C/C2CC2)[C@@H]1C(=O)Nc1ccc(F)c(C(F)(F)F)c1 (single isomer, unassigned) [Example 67] | 0.3 µM
7 | COc1ncc(C2=NOC3CC(CO)CC23)cc1C(=O)N[C@@H]1C2CCC(/C2=C/C2CC2)[C@@H]1C(=O)Nc1ccc(F)c(C(F)(F)F)c1 (single isomer, unassigned) [Example 68] | 0.13 µM
8 | COc1ncc(C2=NOC3CC(CO)CC23)cc1C(=O)N[C@@H]1C2CCC(/C2=C/C2CC2)[C@@H]1C(=O)Nc1ccc(F)c(C(F)(F)F)c1 (single isomer, unassigned) [Example 69] | 0.0015 µM
9 | COc1ncc(C2=NOC3CC(CO)CC23)cc1C(=O)N[C@@H]1C2CCC(/C2=C/C2CC2)[C@@H]1C(=O)Nc1ccc(F)c(C(F)(F)F)c1 (single isomer, unassigned) [Example 70] | 0.0023 µM
10 | COc1cnc(C2=NOC3COCC23)cc1C(=O)N[C@H]1[C@@H](C(=O)Nc2ccc(F)c(C(F)(F)F)c2)[C@H]2CC[C@@H]1/C2=C\C1CC1 (single isomer, unassigned) [Example 71] | 0.028 µM
11 | COc1cnc(C2=NOC3COCC23)cc1C(=O)N[C@H]1[C@@H](C(=O)Nc2ccc(F)c(C(F)(F)F)c2)[C@H]2CC[C@@H]1/C2=C\C1CC1 (single isomer, unassigned) [Example 72] | 0.16 µM
12 | CC1(C)Cc2cc(C3=NOC4CC(O)(C(F)(F)F)CC34)cc(C(=O)N[C@@H]3C4CCC(/C4=C/C4CCCC4)[C@@H]3C(=O)Nc3ccc(F)c(C(F)(F)F)c3)c2O1 (single isomer, unassigned) [Example 142] | 0.0022 µM
13 | COc1ncc(C(=O)NCC2(S(C)(=O)=O)CC2)cc1C(=O)N[C@H]1C(C(=O)Nc2ccc(F)c(C(F)(F)F)c2)[C@H]2CC[C@@H]1/C2=C\C1CC1 (stereo in doubt) [Example 74, N3-((1R,2R,3R,4R,Z)-7-(cyclopropylmethylene)-3-((4-fluoro-3-(trifluoromethyl)phenyl)carbamoyl)bicyclo[2.2.1]heptan-2-yl)-2-methoxy-N5-((1-(methylsulfonyl)cyclopropyl)methyl)pyridine-3,5-dicarboxamide] | 0.0035 µM
14 | COc1ncc(Br)cc1C(=O)N[C@@H]1C2CCC(C2=C(C)C)[C@@H]1C(=O)Nc1ccc(F)c(C(F)(F)F)c1 (stereo partly drawn) [Example 1, 5-bromo-N-[(2R,3S)-3-{[4-fluoro-3-(trifluoromethyl)phenyl]carbamoyl}-7-(propan-2-ylidene)bicyclo[2.2.1]heptan-2-yl]-2-methoxypyridine-3-carboxamide] | 0.71 µM
15 | COc1ccncc1C(=O)N[C@@H]1C2CCC(C2=C(C)C)[C@@H]1C(=O)Nc1ccc(F)c(C(F)(F)F)c1 (stereo partly drawn) [Example 2, N-[(2R,3S)-3-{[4-fluoro-3-(trifluoromethyl)phenyl]carbamoyl}-7-(propan-2-ylidene)bicyclo [2.2.1]heptan-2-yl]-4-methoxypyridine-3-carboxamide] | 0.66 µM
16 | CC(C)=C1C2CCC1[C@H](C(=O)Nc1ccc(F)c(C(F)(F)F)c1)[C@@H]2NC(=O)c1cc(C#N)ccn1 (stereo partly drawn) [Example 3, 4-cyano-N-[(2R,3S)-3-{[4-fluoro-3-(trifluoromethyl)phenyl]carbamoyl}-7-(propan-2-ylidene)bicyclo [2.2.1]heptan-2-yl]pyridine-2-carboxamide] | 0.44 µM
17 | COc1cc(C(=O)N[C@@H]2C3CCC(C3=C(C)C)[C@@H]2C(=O)Nc2ccc(F)c(C(F)(F)F)c2)c(OC)nn1 (stereo partly drawn) [Example 4, N-[(2R,3S)-3-{[4-fluoro-3-(trifluoromethyl)phenyl]carbamoyl}-7-(propan-2-ylidene)bicyclo [2.2.1]heptan-2-yl]-3,6-dimethoxy-pyridazine-4-carboxamide] | 5 µM
18 | COc1ncc(Br)nc1C(=O)N[C@@H]1C2CCC(C2=C(C)C)[C@@H]1C(=O)Nc1ccc(F)c(C(F)(F)F)c1 (stereo partly drawn) [Example 5, 6-bromo-N-[(2R,3S)-3-{[4-fluoro-3-(trifluoromethyl)phenyl]carbamoyl}-7-(propan-2-ylidenc)bicyclo [2.2.1]heptan-2-yl]-3-methoxypyrazine-2-carboxamide] | 1.1 µM
19 | COc1cnccc1C(=O)N[C@@H]1C2CCC(C2=C(C)C)[C@@H]1C(=O)Nc1ccc(F)c(C(F)(F)F)c1 (stereo partly drawn) [Example 6, N-[(2R,3S)-3-{[4-fluoro-3-(trifluoromethyl)phenyl]carbamoyl}-7-(propan-2-ylidene)bicyclo [2.2.1]heptan-2-yl]-3-methoxypyridine-4-carboxamide] | 1.1 µM
20 | COc1nccnc1C(=O)N[C@@H]1C2CCC(C2=C(C)C)[C@@H]1C(=O)Nc1ccc(F)c(C(F)(F)F)c1 (stereo partly drawn) [Example 7, N-[(2R,3S)-3-{[4-fluoro-3-(trifluoromethyl)phenyl]carbamoyl}-7-(propan-2-ylidene)bicyclo [2.2.1]heptan-2-yl]-3-methoxypyrazine-2-carboxamide] | 1.2 µM
21 | COc1ncccc1C(=O)N[C@@H]1C2CCC(C2=C(C)C)[C@@H]1C(=O)Nc1ccc(F)c(C(F)(F)F)c1 (stereo partly drawn) [Example 8, N-[(2R,3S)-3-{[4-fluoro-3-(trifluoromethyl)phenyl]carbamoyl}-7-(propan-2-ylidene)bicyclo [2.2.1]heptan-2-yl]-2-methoxypyridine-3-carboxamide] | 1.3 µM
22 | COc1cscc1C(=O)N[C@@H]1C2CCC(C2=C(C)C)[C@@H]1C(=O)Nc1ccc(F)c(C(F)(F)F)c1 (stereo partly drawn) [Example 9, N-[(2R,3S)-3-{[4-fluoro-3-(trifluoromethyl)phenyl]carbamoyl}-7-(propan-2-ylidene)bicyclo [2.2.1]heptan-2-yl]-4-methoxy-thiophene-3-carboxamide] | 1.4 µM
23 | COc1ncncc1C(=O)N[C@@H]1C2CCC(C2=C(C)C)[C@@H]1C(=O)Nc1ccc(F)c(C(F)(F)F)c1 (stereo partly drawn) [Example 10, N-[(2R,3S)-3-{[4-fluoro-3-(trifluoromethyl)phenyl]carbamoyl}-7-(propan-2-ylidene)bicyclo [2.2.1]heptan-2-yl]-4-methoxypyrimidine-5-carboxamide] | 5 µM
24 | COc1ncc(Cl)cc1C(=O)N[C@@H]1C2CCC(/C2=C/C(F)(F)F)[C@@H]1C(=O)Nc1ccc(F)c(C(F)(F)F)c1 (stereo partly drawn) [Example 11, 5-chloro-N-[(2R,3S,7Z)-3-{[4-fluoro-3-(trifluoromethyl)phenyl]carbamoyl}-7-(2,2,2-trifluoroethylidcne)bicyclo[2. 2.1]heptan-2-yl]-2-methoxypyridine-3-carboxamide] | 0.94 µM
25 | COc1nn(C)cc1C(=O)N[C@@H]1C2CCC(/C2=C/C(F)(F)F)[C@@H]1C(=O)Nc1ccc(F)c(C(F)(F)F)c1 (stereo partly drawn) [Example 12, N-[(2R,3S,7Z)-3-{[4-fluoro-3-(trifluoromethyl)phenyl]carbamoyl}-7-(2,2,2-trifluoroethylidene)bicyclo[2.2.1]heptan-2-yl]-3-methoxy-1-methyl-1H-pyrazole-4-carboxamide] | 4.6 µM
26 | O=C(N[C@@H]1C2CCC(/C2=C/C(F)(F)F)[C@@H]1C(=O)Nc1ccc(F)c(C(F)(F)F)c1)c1cnn2c(C(F)F)cc(Cl)cc12 (some centres unmarked) [Example 13] | 1.7 µM
